Legend:
[1] = target: T1, NQO1 WT (NAD(P)H:quinone oxidoreductase 1) (Homo sapiens, UniProt P15559, P187S); assay: ThermoFAD thermal shift; assay type: binding; conditions: 2 mM BPPSA, 50 mM HEPES pH 7.0
T1 construct: codon-optimised gene in pET28a, E. coli; FAD-containing homodimer

[2] = target: T2, NQO1 WT (NAD(P)H:quinone oxidoreductase 1) (Homo sapiens, UniProt P15559); assay: isothermal titration calorimetry; assay type: binding; conditions: read-out: dissociation constant
T2 construct: codon-optimised gene in pET28a, E. coli; FAD-containing homodimer
Excerpt: (§1) isothermal titration calorimetry on NQO1 WT (NAD(P)H:quinone oxidoreductase 1) | dissociation constants for the binding of BPPSA to the wild‐type and P187S variant

[3] = target: T1, NQO1 WT (NAD(P)H:quinone oxidoreductase 1); assay: isothermal titration calorimetry; assay type: binding; conditions: read-out: dissociation constant
Excerpt: as §1

[4] = target: T2, NQO1 WT (NAD(P)H:quinone oxidoreductase 1); assay: ThermoFAD thermal shift; assay type: binding; conditions: 2 mM BPPSA, 50 mM HEPES pH 7.0
[5] = target: T1, NQO1 WT (NAD(P)H:quinone oxidoreductase 1); assay: NADH-menadione reductase assay, absorbance at […] nm; assay type: biochemical
[6] = target: T2, NQO1 WT (NAD(P)H:quinone oxidoreductase 1); assay: NADH-menadione reductase assay, absorbance at […] nm; assay type: biochemical
[7] = target: T2, NQO1 WT (NAD(P)H:quinone oxidoreductase 1); assay: crystal structure, […] Å; assay type: binding; conditions: co-crystal with BPPSA; FAD in all four chains

SMILES | increase in melting temperature [1] [°C] | Kd [2] [µM] | Kd [3] [µM] | increase in melting temperature [4] [°C] | IC50 [5] [µM] | IC50 [6] [µM] | crystal structure, 2.76 Å [7]
O=S(=O)(Nc1ccccc1Br)N1CCCC1 [BPPSA, N‐(2‐bromophenyl)pyrrolidine‐1‐sulfonamide] | 2.5 | 7.95 ± 0.8 | 20 ± 0.41 | 1 | 26.2 ± 1.2 | 8.6 ± 1.1 | 
Cc1cc2nc3c(=O)[nH]c(=O)nc-3n(C[C@H](O)[C@H](O)[C@H](O)COP(=O)(O)OP(=O)(O)OC[C@H]3O[C@@H](n4cnc5c(N)ncnc54)[C@H](O)[C@@H]3O)c2cc1C [FAD] |  |  |  |  |  |  | Clear residual electron density was observed for FAD bound to each of the four chains

— paper PMC7027498, “A small molecule chaperone rescues the stability and activity of a cancer‐associated variant of NAD(P)H:quinone oxidoreductase 1 in vitro” (Febs Letters, 2019)
